Data published in PubChem BioAssay (NCI).
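Each compound was tested at five concentrations against cells in 96-well plates for 48 hours. At the GI50, growth is halved. Definition used: TGI = concentration required for complete inhibition of growth.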

Legend:
Assay in all cases: NCI-60 cell line screen, 48 h
[1] = system: HOP-62 NSCLC
[2] = system: CCRF-CEM leukemia
[3] = system: HT29 colon
[4] = system: MOLT-4 leukemia
[5] = system: SW-620 colon
[6] = system: OVCAR-5 ovarian
[7] = system: NCI-H226 lung
[8] = system: HL-60(TB) leukemia
[9] = system: T-47D breast
[10] = system: MCF7 breast

SMILES | TGI [1] [µM] | TGI [2] [µM] | TGI [3] [µM] | TGI [4] [µM] | TGI [5] [µM] | TGI [6] [µM] | TGI [7] [µM] | TGI [8] [µM] | GI50 [1] [µM] | GI50 [2] [µM] | GI50 [3] [µM] | GI50 [4] [µM] | GI50 [5] [µM] | GI50 [6] [µM] | GI50 [7] [µM] | GI50 [9] [µM] | TGI [9] [µM] | GI50 [10] [µM] | TGI [10] [µM] | GI50 [8] [µM]
OCC(O)C(O)C(O)c1nn(-c2ccc(F)cc2)c2nc3cc(Cl)c(Cl)cc3nc12 (configuration not stated) | 28.8 | 40 | > 100 | 48.4 | > 100 | > 100 | 49.4 | > 100 | – | – | – | – | – | – | – | – | – | – | – | –
N#Cc1cc(S(=O)(=O)Nc2nc3cc(Cl)ccc3o2)c(SCc2ccccc2)cc1Cl | 24.8 | 27.1 | 31 | 39 | 23.9 | 25.7 | 43.4 | – | 12.3 | 14.1 | 17.3 | 18.6 | 11.7 | 13 | 17.8 | 15.9 | 30.6 | 17.3 | 33.3 | –
COc1cc2c(c(OC)c1OC)C(=O)NCCC2 | > 100 | > 100 | > 100 | > 100 | > 100 | > 100 | > 100 | > 63.1 | – | – | – | – | – | – | – | – | – | – | > 100 | –
C[C@H]1CC[P+](C)(c2ccccc2)C1 (some centres not stated) | > 100 | > 100 | > 100 | > 100 | > 100 | > 100 | > 100 | > 100 | – | – | – | – | – | – | – | – | – | – | – | –
O=[N+]([O-])/C=C/c1ccc(Cl)cc1[N+](=O)[O-] | 13.4 | 8.85 | – | 12.6 | – | 14.9 | 6.96 | 14.1 | 3.04 | 1.12 | – | 3.09 | – | 4.49 | 2.43 | 2.48 | 5.96 | – | – | 3.23
